Experimental data as given in US10130715B2 (priority 2013, dated 2018).
Read-outs that look alike come from different tables or passages of the source.

Key:
[1] = Pilot study: plasma β-alanine and net retention after oral ingestion (GC-MS); format: in vivo, human
Procedure: Each subject completed three trials, labeled “A”, “B”, and “C” using a Latin square design (i.e. subject 1 completed trials in ABC order, subject 2 completed trials in BCA order, and subject 3 completed trials in CAB order). […] Blood samples were drawn into lithium heparin tubes at baseline (time 0), 30 min, 1 hr, 2 hr, 3 hr, 4 hr post ingestion, spun in a clinical centrifuge for 15 minutes, and processed to obtain plasma.

individuals = conditions: human, in vivo
Text: A minimum clinically significant difference in VAS rating for pain or paraesthesia appears to range from 13 mm to 16 mm with a 95% confidence interval. (See e.g., Gallagher, et al., Am J Emerg Med. 2002; 20(4):287-90; Bouhassira, et al., Pain. 2004; 108(3):248-57; Poliakov, et al. Eur J Pain. 2011 November; 15(10):1015-22; and Eisenberg, et al. Eur J Pain. 1998; 2(4):321-327). VAS rating instruments have also been deemed specific and sensitive to detect the effects of an intervention on paraesthesia and neuropathic pain.

[2] = cited from earlier work

For `NCCC(=O)O` [β-alanine, 3-Aminopropanoic acid], the “Net Loss (uMol), Mean (SD)” value ([1]; Mean (SD) of 3 subjects) was 9174.5 (862.96) uMol, the “Net Loss” value ([1]; Subject 1, 0-4 hr collection) was 10167.5 µmol and the “Net Loss” value ([1]; Subject 2, 0-4 hr collection) was 8606.6 µmol. The “Net Loss” value ([1]; Subject 3, 0-4 hr collection) was 8749.3 µmol, the “anchored 100 mm VAS scores for paraesthesia” value (individuals) was 60 mm-90 mm and the severity of paraesthesia ([2]; oral doses of 40 mg/kg or higher) was “moderate-to-severe”. For the same compound, the severity of paraesthesia ([2]; oral doses of 40 mg/kg) was “severe” and the severity of paraesthesia ([2]; oral, 10 mg/kg) was “relatively mild”.
